In ChEMBL document CHEMBL6096664, “Discovery of novel KSP-targeting PROTACs with potent antitumor effects in vitro and in vivo” (Eur J Med Chem, 2025):

Legend:
HCT-116 [1] = assay: Antiproliferative activity against human HCT-116 cells assessed as inhibition of cell proliferation measured after 72 hrs by CCK8 assay; type: functional, cell-based; conditions: HCT-116, 72 h
[2] = biological target: T1, Protein cereblon/Kinesin-like protein KIF11 (Homo sapiens, UniProt P52732+Q96SW2); assay: PROTAC activity at CRBN/KSP in human HCT-116 cells assessed as induction of KSP degradation by measuring maximal efficacy incubated for 48 hrs by Western blot analysis relative to control; type: cell-based
HCT-116 [3] = assay: Induction of apoptosis in human HCT-116 cells assessed as early apoptotic cells at 10 nM incubated for 48 hrs by Annexin V-FITC/PI staining based flow cytometry analysis (reference value: 3.02 %); type: functional
MDA-MB-231 = assay: Antiproliferative activity against human MDA-MB-231 cells assessed as inhibition of cell proliferation measured after 72 hrs by CCK8 assay; type: functional, cell-based; conditions: MDA-MB-231, 72 h
HCT-116 [4] = assay: Induction of apoptosis in human HCT-116 cells assessed as necrotic cells at 100 nM incubated for 48 hrs by Annexin V-FITC/PI staining based flow cytometry analysis (reference value: 1.31 %); type: functional
HCT-116 [5] = assay: Induction of cell cycle arrest in human HCT-116 cells assessed as accumulation of cells at G2/M phase at 100 nM incubated for 24 hrs by RNase A/propidium iodide staining based flow cytometric analysis (reference value: 4.05 %); type: functional
HCT-116 [6] = assay: Induction of cell cycle arrest in human HCT-116 cells assessed as accumulation of cells at G1 phase at 10 nM incubated for 24 hrs by RNase A/propidium iodide staining based flow cytometric analysis (reference value: 93.11 %); type: functional
HCT-116 [7] = assay: Induction of apoptosis in human HCT-116 cells assessed as late apoptotic cells at 10 nM incubated for 48 hrs by Annexin V-FITC/PI staining based flow cytometry analysis (reference value: 1.36 %); type: functional
[8] = biological target: T1, Protein cereblon/Kinesin-like protein KIF11; assay: PROTAC activity at CRBN/KSP in human HCT-116 cells assessed as induction of KSP degradation at 200 nM pretreated with MG-132 for 2 hrs followed by compound addition for 24 hrs by Western blot analysis; type: cell-based
HCT-116 [9] = assay: Induction of apoptosis in human HCT-116 cells assessed as early apoptotic cells at 100 nM incubated for 48 hrs by Annexin V-FITC/PI staining based flow cytometry analysis (reference value: 3.02 %); type: functional
HCT-116 [10] = assay: Antitumor activity against human HCT-116 cells xenografted in female BALB/c nu/nu mouse assessed as reduction in tumor volume at 15 mg/kg, ip measured every 2 days for 14 days relative to control; type: functional; parameters: scale not given: the % may be the effect or the level left; conditions: time 14 day
HCT-116 [11] = assay: Induction of apoptosis in human HCT-116 cells assessed as late apoptotic cells at 100 nM incubated for 48 hrs by Annexin V-FITC/PI staining based flow cytometry analysis (reference value: 1.36 %); type: functional
HCT-116 [12] = assay: Antitumor activity against human HCT-116 cells xenografted in female BALB/c nu/nu mouse assessed as reduction in tumor volume at 7.5 mg/kg, ip measured every 2 days for 14 days relative to control; type: functional; parameters: scale not given: the % may be the effect or the level left; conditions: time 14 day
A549 = assay: Antiproliferative activity against human A549 cells assessed as inhibition of cell proliferation measured after 72 hrs by CCK8 assay; type: functional, cell-based; conditions: A549, 72 h
HCT-116 [13] = assay: Induction of apoptosis in human HCT-116 cells assessed as viable cells at 10 nM incubated for 48 hrs by Annexin V-FITC/PI staining based flow cytometry analysis (reference value: 94.31 %); type: functional; conditions: read-out: Activity
[14] = biological target: T1, Protein cereblon/Kinesin-like protein KIF11; assay: PROTAC activity at CRBN/KSP in human HCT-116 cells assessed as reduction of KSP protein level at 200 nM by Western blot analysis; type: cell-based; conditions: time 6-48 hrs
HCT-116 [15] = assay: Antitumor activity against human HCT-116 cells xenografted in female BALB/c nu/nu mouse assessed as reduction in tumor weight at 15 mg/kg, ip measured every 2 days for 14 days relative to control; type: functional; parameters: scale not given: the % may be the effect or the level left; conditions: time 14 day
[16] = biological target: T2, Kinesin-like protein KIF11 (Homo sapiens, UniProt P52732); assay: Inhibition of KSP (unknown origin) ATPase activity preincubated for 30 mins followed by ATP addition and measured after 15 mins by Kinase-Glo Plus reagent based luminescence analysis
T2 sequence (P52732 whole entry): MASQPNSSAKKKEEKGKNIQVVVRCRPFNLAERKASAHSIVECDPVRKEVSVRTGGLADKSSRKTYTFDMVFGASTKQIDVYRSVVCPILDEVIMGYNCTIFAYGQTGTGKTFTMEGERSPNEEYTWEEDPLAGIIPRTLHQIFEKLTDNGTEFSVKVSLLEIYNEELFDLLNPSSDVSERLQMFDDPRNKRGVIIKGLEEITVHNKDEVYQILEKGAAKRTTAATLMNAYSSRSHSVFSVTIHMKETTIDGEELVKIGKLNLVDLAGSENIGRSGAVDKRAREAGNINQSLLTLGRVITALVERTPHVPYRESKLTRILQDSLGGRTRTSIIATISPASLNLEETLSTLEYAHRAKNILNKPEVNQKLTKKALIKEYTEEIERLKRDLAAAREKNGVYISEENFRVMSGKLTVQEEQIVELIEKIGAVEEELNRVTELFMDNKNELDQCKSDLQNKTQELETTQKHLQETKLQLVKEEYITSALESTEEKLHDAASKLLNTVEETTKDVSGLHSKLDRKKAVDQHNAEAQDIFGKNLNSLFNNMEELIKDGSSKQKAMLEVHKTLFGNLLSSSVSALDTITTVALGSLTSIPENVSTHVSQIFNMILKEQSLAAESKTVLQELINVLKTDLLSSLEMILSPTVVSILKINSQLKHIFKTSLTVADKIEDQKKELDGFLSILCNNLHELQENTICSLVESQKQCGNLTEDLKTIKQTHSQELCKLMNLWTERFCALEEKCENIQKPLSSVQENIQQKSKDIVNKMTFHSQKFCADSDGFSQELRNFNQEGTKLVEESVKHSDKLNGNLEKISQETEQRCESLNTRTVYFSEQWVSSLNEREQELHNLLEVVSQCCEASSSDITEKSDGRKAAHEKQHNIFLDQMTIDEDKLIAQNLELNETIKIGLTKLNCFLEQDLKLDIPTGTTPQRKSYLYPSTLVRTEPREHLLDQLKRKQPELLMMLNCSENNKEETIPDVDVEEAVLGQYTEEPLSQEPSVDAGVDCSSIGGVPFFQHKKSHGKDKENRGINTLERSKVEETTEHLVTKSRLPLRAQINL

[17] = biological target: T1, Protein cereblon/Kinesin-like protein KIF11; assay: PROTAC activity at CRBN/KSP in human HCT-116 cells assessed as induction of KSP degradation at 500 nM incubated for 48 hrs by Western blot analysis relative to control; type: cell-based
HCT-116 [18] = assay: Induction of cell cycle arrest in human HCT-116 cells assessed as accumulation of cells at S phase at 100 nM incubated for 24 hrs by RNase A/propidium iodide staining based flow cytometric analysis (reference value: 2.84 %); type: functional
[19] = Toxicity in female BALB/c nu/nu nude mouse xenografted with human HCT-116 cells assessed as body weight loss at 7.5 to 15 mg/kg, ip measured every 2 days for 14 days; type: organism-based; conditions: in vivo, 336 h, dose 7.5-15 mg/kg, time 14 day

T1 sequence (Q96SW2 whole entry, looked up, one chain of several): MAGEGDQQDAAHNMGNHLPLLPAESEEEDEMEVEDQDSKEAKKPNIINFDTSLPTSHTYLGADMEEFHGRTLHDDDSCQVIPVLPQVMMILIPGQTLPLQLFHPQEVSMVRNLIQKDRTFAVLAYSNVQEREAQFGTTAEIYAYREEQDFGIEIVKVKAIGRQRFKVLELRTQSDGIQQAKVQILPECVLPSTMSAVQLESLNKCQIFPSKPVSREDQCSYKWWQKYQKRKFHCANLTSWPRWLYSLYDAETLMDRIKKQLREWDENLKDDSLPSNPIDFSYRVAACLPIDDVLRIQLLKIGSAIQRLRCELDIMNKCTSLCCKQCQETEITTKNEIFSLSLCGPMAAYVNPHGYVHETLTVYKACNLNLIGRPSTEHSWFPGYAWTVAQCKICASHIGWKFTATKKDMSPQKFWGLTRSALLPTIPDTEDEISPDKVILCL

In the case of `COc1ccc(C2(SC[C@H](N)C(=O)NCCCCCCCCNC(=O)COc3cccc4c3C(=O)N(C3CCC(=O)NC3=O)C4=O)c3ccccc3C=Cc3ccccc32)cc1` (stereo partly specified), the IC50 (HCT-116 [1]) is reported as 10.2 nM, the Emax [2] is reported as 90% and the Activity (HCT-116 [3]) is reported as 13.51%. It also gave an IC50 (MDA-MB-231) of 35.4 nM, an Activity (HCT-116 [4]) of 14.98% and an Activity (HCT-116 [5]) of 75.05%. The Activity (HCT-116 [6]) was 75.34%, the Activity (HCT-116 [7]) was 14.96% and the Activity [8] was “Not active; Compound Induced Ksp Degradation In Mediated Through Ubiquitin-Proteosome System”. It also gave an Activity (HCT-116 [9]) of 30.35%, an Activity (HCT-116 [10]) of 98% and an Activity (HCT-116 [11]) of 25.55%. The Activity (HCT-116 [12]) was 91%, the IC50 (A549) was 160 nM and the viability at 0.01 µM (HCT-116 [13]) was 57.9%. The Activity [14] was “Time-dependent-effect; Considerable Ksp Degradation Noticed Within 6 Hrs”, the Activity (HCT-116 [15]) was 99% and the IC50 [16] was 290 nM. For the same compound, the Activity [17] was 82.1%, the Activity (HCT-116 [18]) was 14.97% and the Activity [19] was “Non-toxic”.
